According to patent US5298488A, “CM-chitin derivatives and use thereof” (Fuji Photo Film Co., Ltd., priority 1990, dated 1994):
No end group written: not given here. sulfated succinylated CM‑chitin = sulfated succinylated CM-chitin; trimellityl CM‑chitin = trimellityl derivative of CM-chitin

Columns and labels:
[1] = test system: fibronectin; test: Cell adhesion-inhibitory test against fibronectin (competitive assay, number of adhered cells); type: cell-based, human; details: endothelium cells of blood vessel, 37° C., one hour, 0 mg/ml control 160
Excerpt: (§1) A method for determining the activity of the CM-chitin derivatives of the present invention for inhibiting adhesion of cells to fibronectin or vitronectin will be described below. The competitive assays used herein have widely been employed tin the field of biochemistry and are detailed in, for instance, "Method in Enzymology", 1981, 82, pp. 803-831; and J. P. KOKAI Nos. Hei 1-309682 and Hei 2-174797.
(§2) Commercially available fibroneotin (derived from human; purchased from Seikaqaku Kogyo K. K.) and vitronectin (derived from human; purchased from Funakoshi Co., Ltd.) each was diluted to 1.0 μ1/ml and 2.0 μ1/ml with PBS (NaH2 PO4 0.005 M+NaCl 0.07 M), 0.5 ml of the resulting diluted solution was dispensed into a plastic plate having 24 wells and incubated at 37° C. overnight to perform coating of the plate. Then bovine serum albumin (BSA 1%) was added followed by incubation at 37° C. for one hour for inhibiting the occurrence of nonspecific adsorption, then washing with PBS in the usual manner and sufficient drainage to give an adsorption plate.
(§3) A CM-chitin derivative obtained through lyophilization was diluted with Dulbecco's Modified Eagles Medium (hereunder referred to as "DMEM") to give solutions of the CM-chitin derivative having concentrations of 0, 0.25, 0.5, 1.0 and 1.5 mg/ml respectively. Each of the solutions (0.25 ml) was dispensed to the plate prepared above, 0.25 ml of a suspension of endothelium cells of blood vessel (4×10^6 cells/ml) was added to the plate and incubated at 37° C. for one hour to thus cause cohesion of the cells. The plate was washed three times with DMEM medium to remove non-adhesive cells, then the adhered cells were peeled off with a 0.025% EDTA trypsin solution and stained with a 2% Trypan Blue solution to determine the number of the adhered cells.

[2] = test system: vitronectin; test: Cell adhesion-inhibitory test against vitronectin (competitive assay, number of adhered cells); type: cell-based, human; details: endothelium cells of blood vessel, 37° C., one hour, 0 control 249
Excerpt: as §1, §2
as §3, with “A CM-chitin derivative obtained through lyophilization was diluted with Dulbecco's Modified Eagles Medium (hereunder referred to as "DMEM") to give solutions of the CM-chitin derivative having concentrations of 0, 0.25, 0.5, 1.0 and 1.5 mg/ml respectively.” left out

[3] = test system: human plasma rich in platelet; test: Platelet coagulation-inhibitory activity in vitro, transmittance by aggregometer; type: cell-based; details: 37° C., 3 minutes preincubation; for Platelet Coagulation-Inhibitory Action IC50, ADP Stimulation: ADP stimulation (50 μM ADP solution); for Platelet Coagulation-Inhibitory Action IC50, Collagen Stimulation: collagen stimulation (200 μg/ml collagen solution)
Description: The platelet coagulation-inhibitory effect of the CM-chitin derivative of the present invention was assayed, in vitro, using human plasma rich in platelet. The experimental method will be described below.
To fresh human blood, there was added 1/9 volume of a 3.8% sodium citrate solution, the resulting mixture was centrifuged (1000 rpm; for 10 minutes) and the upper layer was separated as a plasma rich in platelet. A lyophilized CM-chitin derivative was dissolved in physiological saline to give a plurality of solutions having various concentrations ranging from 0 to 1.5 mg/ml. Each of the solutions (25 μ1) was added to 200 µl of the plasma, incubated at 37° C. for 3 minutes, then a 50 μM of ADP (adenosine diphosphate) solution or a 200 μg/ml collagen solution was added to determine the extent of coagulation in terms of transmittance determined by an aggregometer.
Rate of Coagulation Inhibition=(1-T/T .)×100%
T . : transmittance observed when a salt of CM-chitin derivative was not added.
T : transmittance observed when a salt of CM-chitin derivative was added.

[4] = concentration 10 mg/ml (so in the source)
[5] = concentration 50 mg/ml (so in the source)
[6] = concentration 100 mg/ml (so in the source)
[7] = concentration 300 mg/ml (so in the source)

| Platelet Coagulation-Inhibitory Action IC50, ADP Stimulation [3] | Platelet Coagulation-Inhibitory Action IC50, Collagen Stimulation [3] | Substance | Cell Adhesion-Inhibitory effect Against Fibronectin (number of adhered cells) ([1]; concentration 0.5 mg/ml) | Cell Adhesion-Inhibitory effect Against Fibronectin (number of adhered cells) ([1]; concentration 1.0 mg/ml) | Cell Adhesion-Inhibitory effect Against Fibronectin (number of adhered cells) ([1]; concentration 1.5 mg/ml) | Cell Adhesion-Inhibitory effect Against Fibronectin (number of adhered cells) ([1]; concentration .25 mg/ml) | Cell Adhesion-Inhibitory effect Against Vitronectin (number of adhered cells) [2, 4] | Cell Adhesion-Inhibitory effect Against Vitronectin (number of adhered cells) [2, 5] | Cell Adhesion-Inhibitory effect Against Vitronectin (number of adhered cells) [2, 6] | Cell Adhesion-Inhibitory effect Against Vitronectin (number of adhered cells) [2, 7] |
| --- | --- | --- | --- | --- | --- | --- | --- | --- | --- | --- |
| 12 µg/mL | 2 µg/mL | Sulfated Succinylated CM-Chitin-Gly-Arg-Gly-Asp-Ser ({sulfated succinylated CM‑chitin}-GRGDS) [CM--chitin derivative-16] | 81 cell/well | 75 cell/well | 50 cell/well | 103 cell/well | 122 cell/well | 81 cell/well | 63 cell/well | 40 cell/well |
| 26 µg/mL | 11 µg/mL | Trimellityl Derivative of CM-Chitin Arg-Gly-Asp-Ser ({trimellityl CM‑chitin}-RGDS) [CM--chitin derivative-6] | 107 cell/well | 93 cell/well | 66 cell/well | 127 cell/well | 133 cell/well | 98 cell/well | 71 cell/well | 56 cell/well |
